Source: patent US8163909B2, “Substituted hydroxyethyl amine compounds as beta-secretase modulators and methods of use” (Amgen Inc., priority 2007, dated 2012)
Like-named read-outs stand apart in the source and are kept apart here.

Experiments:
[1] = target: Beta Secretase enzyme (BACE) (Homo sapiens, UniProt P56817); assay: In vitro enzymatic BACE FRET (fluorescence resonance energy transfer) assay; format: biochemical;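 note: fluorescence read after 1 h with 50 nM quenched peptide substrate spanning the BACE cleavage site, in pH 4.2 acetate buffer containing 10% DMSO and nonionic detergent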
[2] = tested on: Aβ40 in conditioned medium of cells stably expressing Amyloid Precursor Protein (APP); assay: In vitro BACE cell-based assay (Aβ40 in conditioned medium, sandwich ELISA); settings: Homo sapiens;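 note: compounds added as a dilution series, secreted peptide quantified by europium time-resolved fluorescence readout, potency fitted from percent of control versus compound concentration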
CYP3A4 (CYP3A) = CYP3A4 (CYP3A) (Homo sapiens, UniProt P08684); assay: in vitro; settings: microsomes, pH 7.4;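 note: inhibition of CYP3A-mediated 1-hydroxymidazolam formation after 10 min incubation with NADPH, quantified by HPLC MS relative to metabolite produced without test compound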
[3] = Microsomal stability assay, rat liver microsomes;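 note: rat liver microsomes (0.25 mg/mL) with about 1 µM compound plus 1 mM NADPH, pH 7.4, 37 °C for 30 min, parent left measured by LC-MS/MS against 0 min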
[4] = Microsomal stability assay, human liver microsomes;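 note: pooled human liver microsomes at 0.25 mg/mL with 1 µM compound and NADPH at 37 °C, pH 7.4, for 30 min, unchanged parent quantified by LC-MS/MS against the 0 min sample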
CYP2D6 = CYP2D6 (Homo sapiens, UniProt P10635); assay: CYP2D6 inhibition assay (bufuralol, pooled human liver microsomes)
[5] = BACE enzyme assay IC50, read-out: BACE1 FRET assay
[6] = HEK293, HEK cell-based assay IC50, read-out: HEK cell assay
[7] = 2D6 IC50 (uM), CYP2D6 inhibition
[8] = read-out: BACE1 FRET assay (IC50)
[9] = HEK293, HEK cells, read-out: HEK cell assay (IC50)
[10] = BACE enzyme assay, IC50's in uM, read-out: BACE1 FRET assay
[11] = HEK293, HEK cell-based assay, IC50's in uM, read-out: HEK cell assay
[12] = 2D6 IC50 (uM), CYP enzyme inhibition

Chain of CYP2D6 (P10635 whole entry): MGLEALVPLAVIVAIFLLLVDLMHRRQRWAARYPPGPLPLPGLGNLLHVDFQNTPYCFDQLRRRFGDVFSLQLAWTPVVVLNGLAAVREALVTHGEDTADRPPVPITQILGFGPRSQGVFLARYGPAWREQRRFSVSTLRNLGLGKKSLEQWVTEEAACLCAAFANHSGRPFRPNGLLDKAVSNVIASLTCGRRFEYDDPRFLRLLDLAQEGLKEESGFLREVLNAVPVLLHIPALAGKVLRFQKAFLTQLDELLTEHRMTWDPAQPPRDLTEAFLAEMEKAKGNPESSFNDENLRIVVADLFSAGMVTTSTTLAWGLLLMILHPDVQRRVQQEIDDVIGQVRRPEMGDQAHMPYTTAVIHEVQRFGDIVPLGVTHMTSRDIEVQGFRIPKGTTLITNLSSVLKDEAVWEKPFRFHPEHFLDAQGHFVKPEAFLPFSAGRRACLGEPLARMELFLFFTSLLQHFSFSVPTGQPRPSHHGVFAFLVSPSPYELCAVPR
Chain of CYP3A4 (CYP3A) (P08684 2-503): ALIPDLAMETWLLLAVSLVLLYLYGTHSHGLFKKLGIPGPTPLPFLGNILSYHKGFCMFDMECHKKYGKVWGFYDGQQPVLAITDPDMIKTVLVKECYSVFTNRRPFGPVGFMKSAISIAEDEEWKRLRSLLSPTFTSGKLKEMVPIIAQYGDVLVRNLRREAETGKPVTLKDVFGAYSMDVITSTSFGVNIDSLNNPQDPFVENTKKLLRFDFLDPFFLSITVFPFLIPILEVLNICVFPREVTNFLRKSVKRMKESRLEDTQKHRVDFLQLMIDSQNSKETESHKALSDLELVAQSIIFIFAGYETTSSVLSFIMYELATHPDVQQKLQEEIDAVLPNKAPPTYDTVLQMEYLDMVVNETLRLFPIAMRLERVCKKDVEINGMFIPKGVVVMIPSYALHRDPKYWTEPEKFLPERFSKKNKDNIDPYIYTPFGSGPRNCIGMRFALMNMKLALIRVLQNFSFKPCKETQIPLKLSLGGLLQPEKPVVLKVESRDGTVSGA
Chain of Beta Secretase enzyme (BACE) (P56817 46-501): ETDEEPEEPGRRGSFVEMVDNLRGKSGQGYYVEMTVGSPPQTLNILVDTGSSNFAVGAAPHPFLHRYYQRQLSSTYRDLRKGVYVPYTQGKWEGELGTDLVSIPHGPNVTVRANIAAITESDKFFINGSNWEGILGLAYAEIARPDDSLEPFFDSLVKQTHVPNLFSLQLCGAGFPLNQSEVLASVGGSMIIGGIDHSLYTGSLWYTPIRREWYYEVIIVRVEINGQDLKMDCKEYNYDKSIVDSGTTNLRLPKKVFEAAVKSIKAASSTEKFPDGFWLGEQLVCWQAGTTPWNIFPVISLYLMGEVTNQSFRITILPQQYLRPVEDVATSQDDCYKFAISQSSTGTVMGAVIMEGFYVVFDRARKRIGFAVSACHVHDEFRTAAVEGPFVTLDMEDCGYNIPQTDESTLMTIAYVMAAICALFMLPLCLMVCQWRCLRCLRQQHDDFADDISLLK

SMILES | IC50 [1, 5] | IC50 [2, 6] | IC50 (CYP3A4 (CYP3A)) | RLM ([3]; rat liver microsomes) | HLM ([4]; human liver microsomes) | IC50 (CYP2D6; [7]) | IC50 [1, 8] | IC50 [2, 9] | IC50 (CYP2D6; 2D6 IC50, CYP2D6 inhibition) | IC50 ([1]; Table 2, read-out: BACE1 FRET assay) | IC50 ([2]; HEK293, Table 2, HEK cells, read-out: HEK cell assay) | RLM ([3]; rat liver microsomal data) | HLM ([4]; human liver microsomal data) | IC50 (CYP2D6; 2D6 IC50, CYP enzyme inhibition) | IC50 [1, 10] | IC50 [2, 11] | IC50 (CYP2D6; [12])
CO[C@H](C)C(=O)N[C@@H](Cc1ccc2c(c1)OCO2)[C@H](O)CN[C@H]1CC(C)(C)Oc2ncc(CC(C)(C)C)cc21 [compound 674] | 0.033 µM | 0.037 µM | 100 nM | 128 µL/min/mg | 26 µL/min/mg | 10.5 µM |  |  |  |  |  |  |  |  |  |  | 
CO[C@H](C)C(=O)N[C@@H](Cc1cccc(F)c1)[C@H](O)CN[C@H]1CC2(CCC2)Oc2c(-c3ccncc3)cc(CC(C)(C)C)cc21 [compound 585] |  |  | 50 nM | 120 µL/min/mg | 65.5 µL/min/mg |  | 0.016 µM | 0.012 µM | 0.75 µM |  |  |  |  |  |  |  | 
CC(C)(C)Cc1cnc2c(c1)[C@@H](NC[C@@H](O)[C@H](Cc1ccc3c(c1)OCO3)NC(=O)[C@H]1CCC(=O)C1)CC1(CCC1)O2 [compound 450] |  |  | 400 nM |  |  |  |  |  |  | 0.15 µM | 0.183 µM | 170 µL/min/mg | 76 µL/min/mg | 8.6 µM |  |  | 
CC(=O)N[C@@H](Cc1cccc(-c2cncs2)c1)[C@H](O)CN[C@H]1CC2(CCC2)Oc2ncc(CC(C)(C)C)cc21 [compound 658, N-((1S,2R)-3-(((4′S)-6′-(2,2-dimethylpropyl)-3′,4′-dihydrospiro[cyclobutane-1,2′-pyrano[2,3-b]pyridin]-4′-yl)amino)-2-hydroxy-1-(3-(1,3-thiazol-5-yl)benzyl)propyl)acetamide] |  |  | 100 nM | 120 µL/min/mg | 130 µL/min/mg |  | 0.006 µM | 0.01 µM | 0.3 µM |  |  |  |  |  |  |  | 
COCC(=O)N[C@@H](Cc1cc(F)cc(-c2nc(C)cs2)c1)[C@H](O)CN[C@H]1CC2(CCC2)Oc2ncc(CC(C)C)cc21 [compound 733] | 0.008 µM | 0.021 µM | ≤ 30 nM | 399 µL/min/mg | 249 µL/min/mg | 4.5 µM |  |  |  |  |  |  |  |  |  |  | 
CO[C@H](C)C(=O)N[C@@H](Cc1cc(F)cc(Cl)c1)[C@H](O)CN[C@H]1CC2(CCC2)Oc2ncc(CC(C)(F)F)cc21 [compound 820] |  |  | 300 nM |  |  |  |  |  |  |  |  | 324 µL/min/mg | 682 µL/min/mg |  | 0.022 µM | 0.021 µM | 3.8 µM
COCC(=O)N[C@@H](Cc1ccc(-c2nccs2)cc1)[C@H](O)CN[C@H]1CC2(CCC2)Oc2ncc(CC(C)C)cc21 [Example 434, N-((2S,3R)-3-hydroxy-4-((S)-6-isobutyl-2,2-spirocyclobutyl-3,4-dihydro-2H-pyrano[2,3-b]pyridin-4-ylamino)-1-(4-(thiazol-2-yl)phenyl)butan-2-yl)-2-methoxyacetamide] |  |  | 200 nM |  |  |  |  |  |  |  |  | 60 µL/min/mg | 80 µL/min/mg |  | 0.075 µM | 0.273 µM | 1.3 µM
COCC(=O)N[C@@H](Cc1cc(F)cc(-c2ncc(C)s2)c1)[C@H](O)CN[C@H]1CC2(CCC2)Oc2ncc(CC(C)C)cc21 [compound 732] | 0.018 µM | 0.083 µM | 200 nM | 399 µL/min/mg | 551 µL/min/mg | 2.5 µM |  |  |  |  |  |  |  |  |  |  | 
COCC(=O)N[C@@H](Cc1ccc(F)c(-c2ncc(C)s2)c1)[C@H](O)CN[C@H]1CC2(CCC2)Oc2ncc(CC(C)(C)C)cc21 [compound 729] | 0.048 µM | 0.291 µM | 400 nM | 399 µL/min/mg | 371 µL/min/mg | 3.9 µM |  |  |  |  |  |  |  |  |  |  | 
COCC(=O)N[C@@H](Cc1ccc2c(c1)OCO2)[C@H](O)CN[C@H]1CC2(CCC2)Oc2c(-c3ccccn3)cc(CC(C)C)cc21 [compound 767] |  |  | 100 nM |  |  |  |  |  |  |  |  | 150 µL/min/mg | 157 µL/min/mg |  | 0.198 µM | 0.251 µM | 3.6 µM
COCC(=O)N[C@@H](Cc1cc(F)cc(F)c1)[C@H](O)CN[C@H]1CC2(CCC2)Oc2c1cc(CC(C)C)nc2-c1cncn1C [compound 715] | 0.02 µM | 0.016 µM | ≤ 30 nM | 34 µL/min/mg | 19 µL/min/mg | 1.8 µM |  |  |  |  |  |  |  |  |  |  | 
COCC(=O)N[C@@H](Cc1cc(F)cc(F)c1)[C@H](O)CN[C@H]1CC2(CCC2)Oc2c1cc(CC(C)(C)C)nc2Nc1ccccc1 [compound 599] |  |  | 6400 nM | 125 µL/min/mg | 120 µL/min/mg |  | 0.018 µM | 0.395 µM | ≥ 27 µM |  |  |  |  |  |  |  | 
COCC(=O)N[C@@H](Cc1cccc(-c2ncc(C)s2)c1)[C@H](O)CN[C@H]1CC2(CCC2)Oc2ncc(CC(C)(C)C)cc21 [compound 759, N-((1S,2R)-3-(((4′S)-6′-(2,2-dimethylpropyl)-3′,4′-dihydrospiro[cyclobutane-1,2′-pyrano[2,3-b]pyridin]-4′-yl)amino)-2-hydroxy-1-(3-(5-methyl-1,3-thiazol-2-yl)benzyl)propyl)-2-methoxyacetamide] |  |  | 300 nM |  |  |  |  |  |  |  |  | 399 µL/min/mg | 436 µL/min/mg |  | 0.021 µM | 0.071 µM | 1.5 µM
